In general, melting point refers to the temperature of the solid-liquid transition. Consider `CC(C(=O)O)c1ccc(CC2CCCC2=O)cc1` (centres undefined), for which the melting point was 108 to 111 °C. On to `S=c1sc(=Nc2ccc(Cl)cc2)n2n1CCCC2`, for which the melting point fell in the range of 96 to 97 °C. Compound `Cn1ncc(N2CCNCC2)c(Cl)c1=O` came in with a melting point of 83 to 87 °C. In the case of `Clc1ccc(-c2cc(C3CCNCC3)n[nH]2)cc1` it was 174 to 176 °C; in that of `Nc1ncc(-c2ccc3c(c2)CCC(NCC(F)(F)F)CC3)c(N)n1` (centres undefined), 154 to 156 °C; in that of `N#Cc1cnc2c(oc3ccccc32)c1O`, more than 310 °C.

Turning to `O=[N+]([O-])c1cc([N+](=O)[O-])c(Nc2ccc(Cl)c3ccccc23)c(C(F)(F)F)c1`, the melting point was 197 to 198 °C. In the case of `O=c1[nH]cnc(C(F)(F)F)c1Cl` it was 191 to 192 °C; in that of `N=C(NC=Cc1ccc([N+](=O)[O-])cc1)c1ccc([N+](=O)[O-])cc1`, 214 to 216 °C; in that of `CC1(C)OC(=O)Nc2ccc(-c3coc(C=NO)c3)cc21`, 236 to 238 °C. Turning to `NS(=O)(=O)C(F)(F)c1nnc(C(F)(F)S(N)(=O)=O)o1`, the melting point lay within 171 to 172 °C.

The compound `CCOc1cc([C@H]2COCC[C@H]2NC(=O)c2ccc(C(=O)OC)cc2)ccc1OC` gave a melting point of 166 to 168 °C.

In turn, `CCNC(=S)n1nc(Oc2c(Cl)cc(C(F)(F)F)cc2Cl)cc1C` had a melting point of 94 to 96 °C. The result for `O=C(OCCOCCO)c1ccc(O)c(Cl)c1` reads 77.5 to 78 °C; that for `CC1NC(=O)NN=C1c1ccc(OCC(=O)NN)c(Cl)c1` (centres undefined), 252 to 254 °C. The result for `Cc1ccc2c(c1)CC(=O)N2c1c(F)cccc1Cl` reads 137 to 140 °C; that for `CC(C)(C)OC(=O)N[C@H]1CCc2ccc(OCCCC(=O)O)cc2C1`, 150 to 153 °C. The result for `CCCCNC(=O)ON1C(C)(C)CC(OC(=O)c2cccc(C(=O)OC3CC(C)(C)N(OC(=O)NCCCC)C(C)(C)C3)c2)CC1(C)C` reads 176 to 177 °C; that for `Cc1ccc(Cc2nc3c(nnn3C(C)CCCc3ccccc3)c(=O)[nH]2)cc1` (centres undefined), 130 °C; that for `CCC1Oc2ccc(-c3nc4ccccn4c3C)cc2NC1=O` (centres undefined), 216 to 217 °C. `CC(=O)OCc1ncc2n1-c1ccc(Cl)cc1C(c1ccccc1F)=[N+]([O-])C2` registered a melting point of 203 to 205 °C. The result for `CS(=O)(=O)c1ccc(-c2[nH]c(Br)c(Cl)c2-c2ccc(F)cc2)cc1` reads 206 to 209 °C; that for `COC(=O)[C@@H](CCCc1ccc(OCc2nc(-c3ccco3)oc2C)c(OC)c1)OC(N)=O`, 110 to 111 °C. The result for `CCCOc1cc(OC)c2c(c1)C(=O)c1cccc(OCCN(CC)CC)c1-2` reads 127 to 129 °C; that for `CN(CCCCCCC(=O)O)c1cnc(-c2ccccc2)c(-c2ccccc2)n1`, 114 to 118 °C. In the case of `CCc1cn(C2CC(O)C(CNC(=O)c3ccc4ccccc4c3)O2)c(=O)[nH]c1=O` (centres undefined) it was 242 to 244 °C; in that of `CCc1nc2ccccc2c(=O)n1-c1ccc(F)cc1`, 178 °C. Take `COc1ccc(N(C(=O)OC(C)(C)C)S(=O)(=O)c2ccc(F)cc2)cc1OC`: the melting point lay in the range of 99 to 102 °C. The compound `Cc1ccc(S(=O)(=O)n2cc3c(c2)SC(=C2SC(SCCc4ccc([N+](=O)[O-])cc4)=C(SCCc4ccc([N+](=O)[O-])cc4)S2)S3)cc1` showed a melting point of 143 to 144 °C.

Take `CC(=NO)C1CC(Cn2ccnc2)(c2ccc(Cl)cc2)N(C)O1` (centres undefined): the melting point lay in the range of 214 to 216 °C.

As for `CSc1nc(N2CCN(CCCCN3C(=O)CC4(CCCC4)CC3=O)CC2)ncc1F`, the melting point lay within 83 to 85 °C.

With `CN(C(=O)CCSC(c1ccccc1)(c1ccccc1)c1ccccc1)c1cn(-c2cccnc2)nc1Cl`, the melting point lay within 62 to 64 °C.

Take `Cc1ccccc1-n1nc(-c2cccc(C(=O)O)c2)[nH]c1=O`: the melting point is more than 310 °C. For `COc1cc2c(cc1OCc1ccccc1)C1Cc3c(Cl)cc(OC)c(OCCOCCO)c3CN1CC2` (centres undefined), the melting point is 122 °C. The result for `COc1ccc(S)c(Cl)c1Cl` reads 81.5 to 83 °C; that for `CCOC(=O)C1=C(C)Nc2ccnc(OC(C)C)c2C1c1cccs1` (centres undefined), 110 to 111 °C.

Take `Cc1c(NC(=O)CC(C)(C)C)cc2c(c1C)OC(C)(C)C2(O)c1ccc(Br)cc1` (centres undefined): the melting point lay within 118 to 119 °C. The result for `CNc1nc(-c2cccc(N(C)C(=O)c3ccccc3)c2)c2cc(OC)c(OC)cc2n1` reads 198 to 200 °C; that for `ON=C1c2ncc(Cl)cc2C=CC1Cl` (centres undefined), 202 °C.

Compound `COc1ccc(C(=O)NNC(=O)N(C)C)cc1` yielded a melting point of 218 to 220 °C. In the case of `COc1cc2c(cc1C)C(=O)CCC2` it was 104 to 107 °C; in that of `Brc1ccc2nc(COc3ccc(CCCn4ccnc4)cc3)cn2c1`, 103 to 104 °C; in that of `N#Cc1cccnc1Oc1cccc(Cl)c1`, 88 to 90 °C. In the case of `S=C(NN=C(CCCCl)c1ccccc1)Nc1ccccc1` it was 107 to 109 °C.

As to `CCOC(=O)C(O)CCc1ccc(OC)c(OCc2ccccc2)c1` (centres undefined), the melting point was in the range of 93 to 94 °C. The result for `COC(=O)CNC(=O)c1cc(C(=O)OC)c(O)c2ncc(Cc3ccc(F)cc3)cc12` reads 209 to 210 °C.

Regarding `CCOC(=O)c1cc2n(CC)c3ccc(Cl)cc3c(=O)n2n1`, the melting point was 256 to 257 °C. `O=C(O)C1CSC(c2ccccc2F)N1` (mixture of isomers) displayed a melting point of 147 °C.

Regarding `Cc1ccc2c(c1)C(=O)C1=NCCCN12`, the melting point is 128 to 130 °C.

Consider `Nc1ccc(C2(c3ccc(F)cc3)OCCO2)cc1[N+](=O)[O-]`, for which the melting point worked out at 105 °C. Consider `COC(=O)c1ccc(OC)c(C(C)=O)c1`, for which the melting point lay in the range of 54 to 58 °C. In the case of `O=C(c1ccc(F)cc1)c1cccc(C#Cc2ccc(F)cc2)c1` it was 127 to 128 °C.

In turn, `C[C@H]1CC[C@H]2C(C)(C)[C@H](OS(=O)(=O)c3ccccc3)CC[C@]23Oc2c(c(O)cc4c2CNC4=O)C[C@]13C` had a melting point of 160 to 162 °C.

The compound `CS(=O)(=O)c1ccc(Br)cc1C(F)(F)F` registered a melting point of 110 to 112 °C. The result for `COc1cc(C(=O)c2c(C)c(OCCO)c3ccccn23)ccc1[N+](=O)[O-]` reads 142 °C; that for `CC(C)(c1ccccc1)n1nnc(-c2ccccc2-c2ccc(C3OCCCO3)cc2)n1`, 102 to 106 °C. In the case of `CS(=O)(=O)c1ccc(C2=C(c3ccccc3)C(=O)C3(CCCCC3)O2)cc1` it was 126 to 127 °C. The result for `CC(=O)NCC1CCC(Nc2nc3c(s2)CCCc2ccc(F)cc2-3)CC1` (centres undefined) reads 88 to 91 °C; that for `COCOc1cccc(-c2ccc(-c3ccc(C(=O)O)cc3)cc2-c2ccc3c(c2)C(C)(C)CCC3(C)C)c1`, 103 to 104 °C.

In turn, `Oc1cccc(-c2nc(COc3ccc(CCCn4ccnc4)cc3)co2)c1` yielded a melting point of 164 to 165 °C. In the case of `CCOC(=O)c1cn(-c2nsnc2C)c2nc(Cl)c(F)cc2c1=O` it was 192 °C; in that of `O=C(CCc1ccccc1)N[C@H](Cc1ccc(C(F)(F)F)cc1)[C@@H](O)c1ccc(Oc2ccccc2)cc1` (racemic), 133 to 134 °C. The result for `CC(=O)/C=C(\C)c1ccc(-c2ccccc2F)cc1` reads 92 °C; that for `Cn1cc(SCc2ccccc2)c(=O)c(-c2cccc(C(F)(F)F)c2)c1`, 121 to 122 °C. In the case of `COC(=O)C1CC(=O)C(N=Nc2ccccc2)=C(O)C1` (centres undefined) it was 117 to 118 °C; in that of `CC(C)c1ccc(/C=C/c2cc(/C=C/c3ccc4cc[nH]c4c3)n[nH]2)cc1`, 208 to 212 °C; in that of `COc1ccc(F)cc1C(C)(C)CC(=O)C(=O)Nc1ccc2c(=O)onc(C)c2c1`, 171 to 173 °C.

`COc1ccc(-c2csc(C=CC(=O)O)c2)cc1C(C)(C)C`: the melting point lay within 206 to 207 °C. The result for `CC1(C)Oc2ccc(OC(F)(F)F)cc2[C@@H](N2Cc3cccnc3C2=O)[C@@H]1O` (relative stereo) reads 248 to 250 °C. For `O=C(O)C(CC(=O)N1CCOCC1)Cc1cccc2ccccc12` (centres undefined), the melting point lay in the range of 62 to 66 °C.

Regarding `Nc1c(CC(=O)O)cccc1Nc1ccc(Cl)cc1`, the melting point is 190 to 192 °C.

`CCCCCc1ccc(-c2ccc(CCc3ccc(OCC)cc3)cc2)cc1` showed a melting point of 81 °C.

In turn, `C[C@@H]1Cc2ccsc2[C@H](c2cccs2)N1CCNS(=O)(=O)c1ccc(N)cc1` (relative stereo) gave a melting point of 156 to 161 °C. In the case of `O=C1NCCN1Cc1c(Cl)cccc1Cl` it was 156 to 158 °C; in that of `O=C(O)COc1cccc2c1CCc1sc(NC(c3ccccc3)c3ccccc3)nc1-2`, 250 to 252 °C; in that of `CSc1snc(C(F)(F)F)c1C(=O)O`, 260 to 262 °C. For the compound `Cn1nc(-c2nc(S(C)(=O)=O)c(N)nc2-c2ccccc2)ccc1=O`, the melting point lay within 231 to 233 °C. The result for `COCC(=O)NCc1cccc(-c2csc(N=C(N)N)n2)n1` reads 195 to 196 °C; that for `Cc1cc2c(cc1C1=NNC(=O)CC1C)NC(=O)CO2` (centres undefined), 163 to 166 °C. The result for `Brc1ccc(-c2cc(-c3ccc(Br)cc3)cc(-c3ccc(Br)cc3)c2)cc1` reads 254 to 255 °C; that for `CCCCCCCCCCOc1ccc(C(=NO)c2cccc(C(=O)O)c2)cc1CCC(=O)O`, 163 to 165 °C; that for `N#C[C@@H]1CCCN1C(=O)CCl`, 53 to 57 °C. Regarding `CCOC(=O)C=C(C)Nc1ccccc1N`, the melting point lay within 73 to 81 °C. Compound `CC(=O)OCc1ccc2oc(=O)c(C(=O)Oc3ccccc3I)cc2c1` gave a melting point of 156 to 158 °C. In the case of `O=C(NC(P(=O)(O)O)P(=O)(O)O)c1cc2ccccc2s1` it was 234 to 238 °C; in that of `CC(=O)Nc1nc(Cl)c2ncn(COC(COC(C)=O)COC(C)=O)c2n1`, 139 to 140 °C; in that of `CC(=O)N[C@H]1C(n2cc(Cl)cnc2=O)O[C@H](CO)[C@@H](O)[C@@H]1O` (some centres undefined), 156 to 158 °C. The result for `CN1CCN(Cc2cc(-c3ccc4c(c3)CCO4)nn(CC3CC3)c2=O)CC1` reads 128 to 130 °C. In the case of `CN1CCN(C2Cc3ccccc3Sc3cc(F)c(Cl)cc32)CC1` (centres undefined) it was 105 to 107 °C.

These data come from a melting point compilation (Tetko et al.; mined from patent text by program, amines drawn as free bases though some values may be those of a salt).
